Reference: ChEMBL document CHEMBL5724914, “Linking interpersonal differences in gut microbiota composition and drug biotransformation activity” (2024)

Legend:
[1] = The drug is tested on Z-021 corresponding to metagenome with ENA study accession number: PRJEB37062 and ENA sample accession number: ERS12561820 for biotransformation under anaerobic condition. The drug concentrations were measured over 9 timepoints collected between 0 and 24 hours of incubation by liquid-chromatography-coupled mass spectrometry (LC–MS); conditions: 2 µM
[2] = The drug is tested on Z-004 corresponding to metagenome with ENA study accession number: PRJEB37062 and ENA sample accession number: ERS12561804 for biotransformation under anaerobic condition. The drug concentrations were measured over 9 timepoints collected between 0 and 24 hours of incubation by liquid-chromatography-coupled mass spectrometry (LC–MS); conditions: 2 µM
[3] = human gut metagenome, 24 h, 2 µM
[4] = human gut metagenome, 24 h, 2 µM; remark: listed apart in the source
[5] = human gut metagenome, 24 h, 2 µM; remark: listed apart in the source
[6] = human gut metagenome, 24 h, 2 µM; remark: listed apart in the source
[7] = human gut metagenome, 24 h, 2 µM; remark: listed apart in the source
[8] = human gut metagenome, 24 h, 2 µM; remark: listed apart in the source
[9] = The drug is tested on WLS-027 corresponding to human gut metagenome with ENA study accession number: PRJEB37062 and ENA sample accession number: ERS12561744 for biotransformation under anaerobic condition. The drug concentrations were measured over 9 timepoints collected between 0 and 24 hours of incubation by liquid-chromatography-coupled mass spectrometry (LC–MS); conditions: 2 µM
[10] = The drug is tested on Z-027 corresponding to metagenome with ENA study accession number: PRJEB37062 and ENA sample accession number: ERS12561826 for biotransformation under anaerobic condition. The drug concentrations were measured over 9 timepoints collected between 0 and 24 hours of incubation by liquid-chromatography-coupled mass spectrometry (LC–MS); conditions: 2 µM
[11] = human gut metagenome, 24 h, 2 µM; remark: listed apart in the source
[12] = human gut metagenome, 24 h, 2 µM; remark: listed apart in the source
[13] = The drug is tested on Z-005 corresponding to metagenome with ENA study accession number: PRJEB37062 and ENA sample accession number: ERS12561805 for biotransformation under anaerobic condition. The drug concentrations were measured over 9 timepoints collected between 0 and 24 hours of incubation by liquid-chromatography-coupled mass spectrometry (LC–MS); conditions: 2 µM
[14] = The drug is tested on WLS-007 corresponding to human gut metagenome with ENA study accession number: PRJEB37062 and ENA sample accession number: ERS12561742 for biotransformation under anaerobic condition. The drug concentrations were measured over 9 timepoints collected between 0 and 24 hours of incubation by liquid-chromatography-coupled mass spectrometry (LC–MS); conditions: 2 µM
[15] = The drug is tested on WLS-082 corresponding to human gut metagenome with ENA study accession number: PRJEB37062 and ENA sample accession number: ERS12561751 for biotransformation under anaerobic condition. The drug concentrations were measured over 9 timepoints collected between 0 and 24 hours of incubation by liquid-chromatography-coupled mass spectrometry (LC–MS); conditions: 2 µM
[16] = human gut metagenome, 24 h, 2 µM; remark: listed apart in the source
[17] = The drug is tested on Z-016 corresponding to mouse gut metagenome with ENA study accession number: PRJEB37062 and ENA sample accession number: ERS12561815 for biotransformation under anaerobic condition. The drug concentrations were measured over 9 timepoints collected between 0 and 24 hours of incubation by liquid-chromatography-coupled mass spectrometry (LC–MS); conditions: 2 µM
[18] = human gut metagenome, 24 h, 2 µM; remark: listed apart in the source
[19] = human gut metagenome, 24 h, 2 µM; remark: listed apart in the source
[20] = The drug is tested on WLS-350 corresponding to human gut metagenome with ENA study accession number: PRJEB37062 and ENA sample accession number: ERS12561789 for biotransformation under anaerobic condition. The drug concentrations were measured over 9 timepoints collected between 0 and 24 hours of incubation by liquid-chromatography-coupled mass spectrometry (LC–MS); conditions: 2 µM
Further: call rule not given here.

SMILES	Bacterial Biotransformation [1]	Bacterial Biotransformation [2]	Bacterial Biotransformation [3]	Bacterial Biotransformation [4]	Bacterial Biotransformation [5]	Bacterial Biotransformation [6]	Bacterial Biotransformation [7]	Bacterial Biotransformation [8]	Bacterial Biotransformation [9]	Bacterial Biotransformation [10]	Bacterial Biotransformation [11]	Bacterial Biotransformation [12]	Bacterial Biotransformation [13]	Bacterial Biotransformation [14]	Bacterial Biotransformation [15]	Bacterial Biotransformation [16]	Bacterial Biotransformation [17]	Bacterial Biotransformation [18]	Bacterial Biotransformation [19]	Bacterial Biotransformation [20]
COc1ccccc1OCCNCC(O)COc1cccc2[nH]c3ccccc3c12 (stereo not given) [CARVEDILOL]	Compound NOT metabolized	Compound NOT metabolized	Compound NOT metabolized	Compound NOT metabolized	Compound metabolized	Compound metabolized	Compound metabolized	Compound NOT metabolized	Compound metabolized	Compound NOT metabolized	Compound metabolized	Compound NOT metabolized	Compound NOT metabolized	Compound NOT metabolized	Compound metabolized	Compound NOT metabolized	Compound NOT metabolized	Compound metabolized	Compound metabolized	Compound metabolized
CC(C)(C)NCC(O)c1cc(Cl)c(N)c(Cl)c1 (stereo not given) [CLENBUTEROL]	Compound NOT metabolized	Compound NOT metabolized	Compound NOT metabolized	Compound NOT metabolized	Compound NOT metabolized	Compound NOT metabolized	Compound NOT metabolized	Compound NOT metabolized	Compound NOT metabolized	Compound NOT metabolized	Compound NOT metabolized	Compound NOT metabolized	Compound NOT metabolized	Compound NOT metabolized	Compound NOT metabolized	Compound NOT metabolized	Compound NOT metabolized	Compound NOT metabolized	Compound NOT metabolized	Compound NOT metabolized
C[N+]12CCC(CC1)C(OC(=O)C(O)(c1ccccc1)c1ccccc1)C2.[Br-] (stereo not given) [CLIDINIUM BROMIDE]	Compound NOT metabolized	Compound NOT metabolized	Compound NOT metabolized	Compound metabolized	Compound metabolized	Compound NOT metabolized	Compound metabolized	Compound metabolized	Compound NOT metabolized	Compound NOT metabolized	Compound metabolized	Compound NOT metabolized	Compound NOT metabolized	Compound NOT metabolized	Compound NOT metabolized	Compound NOT metabolized	Compound NOT metabolized	Compound NOT metabolized	Compound NOT metabolized	Compound metabolized
Clc1cccc(Cl)c1N=C1NCCN1 [CLONIDINE]	Compound NOT metabolized	Compound metabolized	Compound NOT metabolized	Compound NOT metabolized	Compound metabolized	Compound NOT metabolized	Compound metabolized	Compound NOT metabolized	Compound NOT metabolized	Compound NOT metabolized	Compound metabolized	Compound NOT metabolized	Compound NOT metabolized	Compound NOT metabolized	Compound NOT metabolized	Compound metabolized	Compound NOT metabolized	Compound NOT metabolized	Compound metabolized	Compound NOT metabolized
COC(=O)[C@H](c1ccccc1Cl)N1CCc2sccc2C1.O=S(=O)(O)O [CLOPIDOGREL BISULFATE]	Compound metabolized	Compound metabolized	Compound metabolized	Compound metabolized	Compound metabolized	Compound metabolized	Compound metabolized	Compound metabolized	Compound NOT metabolized	Compound metabolized	Compound metabolized	Compound metabolized	Compound metabolized	Compound metabolized	Compound metabolized	Compound metabolized	Compound metabolized	Compound metabolized	Compound metabolized	Compound metabolized
O=P1(N(CCCl)CCCl)NCCCO1 (stereo not given) [CYCLOPHOSPHAMIDE ANHYDROUS]	Compound NOT metabolized	Compound metabolized	Compound NOT metabolized	Compound NOT metabolized	Compound metabolized	Compound NOT metabolized	Compound metabolized	Compound NOT metabolized	Compound NOT metabolized	Compound NOT metabolized	Compound metabolized	Compound NOT metabolized	Compound NOT metabolized	Compound NOT metabolized	Compound metabolized	Compound NOT metabolized	Compound NOT metabolized	Compound NOT metabolized	Compound metabolized	Compound NOT metabolized
